Consider one molecule from patent US20020177625A1, “Class of glaucoma drugs to enhance aqueous humor outflow and lower intra-ocular pressure” (The Regents of the University of California, a California …, priority 2001, published 2002).

Entries after “also recorded” stand apart in the source; their conditions may differ.

What all share (assay type): cell-based
Test [1] deals with human TM cells. Description: Whole cell patch clamp ion conductances of human TM cells. The procedure:
Further studies conducted with agents known to block Cl and K channels attenuate the swelling-activated regulatory volume decrease in TM cells and niflumic acid reduces both cell volume and intracellular [Cl] of TM cells. In these studies, human TM cells were cultured from donor eyes and used between passages three and eight. Routine whole cell patch clamp methods were used to assess conductances of TM cells in isotonic (290 mOsm) and hypotonic (230 mOsm) media, with or without NPPB, DIDS, TEA or niflumic acid. Conductances were determined from current/voltage plots, generated using a ramp protocol. […] The reversal potential observed in the presence of hypotonic medium was close to the calculated reversal potential for Cl. Switching to an external medium containing reduced Cl shifted the reversal potential toward that calculated for the low Cl medium. Treating the TM cells with the Cl channel blocker NPPB (100 μM) abolished the swelling-activated conductance in a manner reversed by subsequent washout of NPPB. […] Finally, treatment of the cells with the K channel blocker TEA (1 mM) also abolished the niflumic acid-activated TM cell conductance.
Human TM and SC cells grown to subconfluence are gently trypsinized on the day of the experiment and immediately exposed to trypsin-neutralizing solution and then allowed to settle onto standard square (22×22-mm) glass coverslips for 30 minutes before use. Routine patch clamp methods were used as described previously Barakat, A. I., et al., Circulation Research, 85: 820-828, 1999; Hamill, O. P. et al., Pflügers Archives, 391: 85-100, 1981; Mauro, T. et al., J of Invest. Dermatology, 105: 203-208, 1995; Pappone, P. A. et al., J. of Physiology, 306:377-410, 1980; Pappone, P. A. et al., J of Gen. Physiology, 106: 231-258, 1995; Pappone, P. A. et al., Amer. J. of Physiology: Cell Physiology, 264: C1014-C1019, 1993; Wilson, S. M. et al., J. of Gen. Physiology, 113: 125-138, 1999. Using the whole cell patch clamp mode, conductances were assessed for isotonic and hypotonic media. By assessing current/voltage (I/V) relationships and reversal potentials for the TM and SC cells while using specific concentrations of Cl in the pipette and bath media, the nature of the conductances observed can be determined.
Whole cell currents were measured at room temperature in a Warner recording/perfusion chamber (Warner Instrument Corp.) using standard whole-cell patch clamp techniques as described previously, Lucero, M. T. et al., J. of Gen. Physiology, 95:523-544, 1999. Thick-walled borosilicate capillaries (Sutter Instruments, Inc., Novato, Calif.) were used to manufacture pipettes with resistances of 3 to 5 MW. The voltage offset between the patch pipette and the bath solution were nulled immediately before patch formation. An agar bridge containing […] KCl was used to ground the bath solution. Voltages were recorded from a patch-clamp amplifier (AXOPATCH 200A, Axon Instruments). Data was collected on a Macintosh personal computer using Pulse+Pulsefit software (HEKA Elektronik). Whole-cell currents were recorded from single (sub confluent) cells with membrane capacitances nulled through the patch-clamp amplifier. The voltage ramp protocol included a voltage step from the holding potential to +60 mV for 40 ms followed by a ramp to −100 mV over a period of 400 ms followed by a return to the holding potential. During the protocol, voltage ramps were conducted once every 5 seconds for 10 minutes, yielding 120 traces. Conductances were computed by taking the derivative of a least-squares straight line fit to the I-V data plots using Igor Pro Software (Wavemetrics, Inc.). In cases in which the I-V plots are not linear over the entire voltage ramp (as in FIGS. 6AB), computation of the whole-cell conductance were restricted to a linear range, typically 0 to +60 mV. […]
Background: The patch-clamp technique gives a direct electrical read-out from membranes.

Test [2] relates to TM cells. Description: Intracellular [Cl] of TM cells. To be noted: niflumic acid 100 μM.
Test [3] relates to human TM cells. Description: Intracellular volume of human TM cells (14C-urea/14C-sucrose water space or COULTER COUNTER electronic cell sizing), isotonic medium. To be noted: human TM cells. The procedure:
The intracellular volume of human and bovine TM cells was evaluated by two methods: 1) radioisotopic evaluation of TM monolayer intracellular water space using ^14C-urea and ^14C-sucrose as markers of total and extracellular space, respectively; and 2) electronic cell sizing of suspended TM cells, using a COULTER COUNTER™ assay (Coulter Electronics, Ltd., Hialeah, Fla.). Details of these methods have been described previously by O'Donnell (O'Donnell, M. E., supra, 1993) the entirety of which is incorporated herein by reference.
By the first method, cell monolayers were preequilibrated for 30 minutes in Hepes MEM at 37° C. in an air atmosphere, then incubated for 20 minutes in Hepes MEM containing 0 or 10 μM bumetamide, ethacrynic acid, or other agents to be tested, and finally incubated for 10 minutes in the same medium containing either ^14C-urea or ^14C-sucrose (both at 1 μCi/ml). Monolayers were then rinsed with isotonic ice-cold MgCl2 and radioactivity of SDS extracts determined by liquid scintillation. Specific activities (counts per minute/ml) of ^14C-urea and ^14C-sucrose in the assay medium were determined and used to calculate water space associated with trapped radioactivity (expressed as μl/mg protein. Intracellular volume was calculated as the difference between the water space determined for ^14C-urea (a marker for intracellular plus trapped extracellular space) and ^14C-sucrose (a marker for trapped extracellular space).
By the second method, TM cells were trypsinized briefly in Ca-free medium, then rinsed with medium containing trypsin inhibitor and suspended in Hepes MEM. Mean cell volumes were then analyzed by electronic cell sizing on a COULTER COUNTER™ radioassay (Model ZM) with channelizer (C256), using at least 50,000 cells per data point and an orifice diameter of 140 μm. Aliquots of suspended cells were diluted into Hepes MEM containing the tonicity and/or agents to be evaluated. Mean cell volumes of each suspension aliquot were followed over time, starting at 1 minute after addition of cells to the assay media. Cell suspensions were maintained at 37° C. throughout the assay period. Absolute volumes (picoliters/cell) were calculated from distribution curves of cell diameter, using a standard curve generated by polystyrene latex beads of known diameter.
Human TM cells were exposed to isotonic medium ±niflumic acid (10 or 100 μM)±10 μM bumetamide. Cell volume was assessed by COULTER COUNTER™ electronic cell sizing over the time course shown, using TM cells in suspension. Note that niflumic acid (NA) alone decreases volume of the TM cells and that exposing the cells to NA plus bumetamide causes a further decrease in TM cell volume. Data represent means of two experiments (all conditions shown tested in both experiments).

As for `O=C(O)c1cccnc1Nc1cccc(C(F)(F)F)c1` [niflumic acid], the “reversal potential of the niflumic acid-activated conductance” value in test [1] (human TM cell, 100 μM niflumic acid, calculated reversal potentials Cl −22 mV, K −82 mV) is listed as “very close to the Cl reversal potential; also recorded: quite close to the calculated reversal potential for Cl”. For the same molecule, the “niflumic acid-activated conductance, dependence on bath ions” value in test [1] (human TM cells, niflumic acid 100 μM, K-free or Cl-free medium) was “abolished in K-free medium but not in Cl-free medium”. In test [1] (normal human TM cells, isotonic bath, niflumic acid 100 μM), the “ion conductance of TM cells” value is given as “activate an ion conductance; also recorded: rapid increase in conductance”. The “intracellular [Cl] of the TM cells” value in test [2] was “significantly reduced”. Further, the “TM cell volume in isotonic medium (resting volume)” value in test [3] (niflumic acid 10 μM) and in test [3] (niflumic acid 100 μM) was “decreased” in each case.
